The record followed here is US20170095565A1, “CHEMICALLY MODIFIED SMALL MOLECULES” (Nektar Therapeutics, priority 2003, published 2017).

One data set has as its target μ-Opiate Receptors (Homo sapiens, UniProt P35372). The data set is described as follows: biochemical. It is filed as biochemical. The source says:
In the table above, for each compound, the bioactivity is provided as a measure of the relative bioactivity of each of the various PEG conjugates in comparison to parent drug. The EC50 is the concentration of agonist that provokes a response halfway between the baseline and maximum response in a standard dose-response curve.

A short description of data set [1]: Solubility of tested compounds (Table 1).
Data set [2] in a line: Oral bioavailability: plasma concentration after oral gavage. It is filed as in vivo, Sprague Dawley rats. The following applies: rats. How it is done: Female Sprague Dawley® rats (150-200 g) were obtained from Harlan Labs. […] The animals were fasted overnight (day −1), but water was provided ad libitum.
On the morning of dosing (day 0), each rat was weighed and the cannulas flushed with heparin (1000 U/mL). With the aid of a feeding tube, the animals were then dosed orally (gavage) with aqueous formulations containing either the PEGylated or the free drug. The dose was determined on a mg/kg body weight basis. […] At specific time intervals (1, 2 and 4 hours), blood samples (approximately 1.0 mL) were removed through the cannula, placed in 1.5 mL centrifuge tubes containing 14 μL of heparin, mixed and centrifuged to separate the plasma. The plasma samples were frozen (<−70° C.) until assayed. The plasma samples were purified by a precipitation technique and the analyte extracted and assayed using a high performance liquid chromatography (LC) method with a mass selective detector (MSD). […] When appropriate, an internal standard was used in the analysis.

In the next data set the target is Mu-opiate (Homo sapiens, UniProt P35372). The following applies: read-out: IC50, Mu-opiate binding activity.
Sequence of Mu-opiate (P35372 whole entry, the tested form may be a part): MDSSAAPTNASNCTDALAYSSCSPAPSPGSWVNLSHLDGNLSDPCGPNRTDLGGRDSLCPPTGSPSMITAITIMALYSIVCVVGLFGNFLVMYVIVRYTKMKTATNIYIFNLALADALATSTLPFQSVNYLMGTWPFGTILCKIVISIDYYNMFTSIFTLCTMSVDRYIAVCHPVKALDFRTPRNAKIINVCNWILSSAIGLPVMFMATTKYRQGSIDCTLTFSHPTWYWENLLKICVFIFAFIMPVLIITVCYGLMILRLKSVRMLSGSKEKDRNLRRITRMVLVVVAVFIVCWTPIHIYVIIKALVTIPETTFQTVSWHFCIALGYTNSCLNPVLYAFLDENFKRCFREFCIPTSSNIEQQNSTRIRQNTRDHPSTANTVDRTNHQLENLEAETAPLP
A short description of data set [3]: In situ brain perfusion, blood-brain barrier uptake. The following applies: for Normalized Brain Uptake Rate (Mean ± SD): normalized to 5 μM dosing solution, 20 mL/min perfusion rate, 30 sec; for Reduction in brain uptake rate (BUR) compared to the parent compound (factor / times): vs parent drug.
Description: As utilized for these experiments, the in situ brain perfusion technique employed the intact rat brain to (i) determine drug permeation across the BBB under normal physiological conditions, and (ii) to study transport mechanisms such as passive diffusion verses carrier mediated transport.
Perfusion was performed using the single time-point method. Briefly, the perfusion fluid (perfusate) containing the test compound(s) was infused into rats via the left external carotid artery at a constant rate by an infusion pump (20 mL/min). Perfusion flow rate was set to completely take over fluid flow to the brain at normal physiologic pressure (80-120 mm Hg). The duration of the perfusion was 30 seconds. Immediately following the perfusion, the brain vasculature was perfused for an additional 30 seconds with drug-free perfusate to remove residual drug. The pump was turned off and the brain was then immediately removed from the skull. Left-brain samples from each rat were first weighed and then homogenized using a Polytron homogenizer. Four (4) mL of 20% methanol was added to each rat brain for homogenization. After homogenization, the total volume of homogenate was measured and recorded.
A measured amount of the homogenate was diluted with organic solvent and subsequently centrifuged. The supernatant was removed, evaporated in a stream of nitrogen and reconstituted and analyzed by LC/MS/MS. Quantification of drug concentrations in brain homogenate was performed against calibration curves generated by spiking the drugs into blank (i.e. drug-free) brain homogenate. Analysis of the drug concentrations in brain homogenates was carried out in triplicate, and the values were used to calculate the brain uptake rate in pmole per gram of rat brain per second of perfusion.
All the data was normalized to a 5 μM dosing solution at 20 mL/min perfusion rate for 30 sec.
Where [4] appears, read: PEGylated compounds normalized to 1 mg/kg dose.

For orientation: EC50 means the concentration at which the effect is half-maximal. Lower therefore signals greater potency. By Solubility is commonly meant the concentration that dissolves in the medium under given conditions. A lower Solubility goes with little dissolved substance. For orientation: IC50 means the point on the concentration scale where inhibition reaches its midpoint.

Values after ≈ are worked out from the molar mass of the structure shown. Like-named read-outs stand apart in the source and are kept apart here.

Sequence of μ-Opiate Receptors (P35372 whole entry): as the sequence (P35372 whole entry, the tested form may be a part) above

On μ-Opiate Receptors (μ-opiate receptors, in-vitro), `C=CCN1CCC23c4c5ccc(O)c4OC2C(O)CCC3(O)C1C5` (single isomer, unassigned) [β-6-naloxol, reference compound] registered an EC50 of 10.8 nM.

Regarding `C=CCN1CC[C@]23c4c5ccc(O)c4O[C@H]2[C@@H](OCCOCCOCCOC)CC[C@@]3(O)[C@H]1C5` [α-PEG3-Nal, α-6-CH3—(OCH2CH2)3—O-naloxol], the Solubility entry in data set [1] is reported as “soluble”. At μ-Opiate Receptors (from EC50 values), the “Bioactivity relative to the parent compound” value is listed as “about 30%”. A half-maximal response on μ-Opiate Receptors (μ-opiate receptors, in-vitro) (EC50) required 7.3 nM. The “Percentage of Active Remaining After Incubation with Liver Microsomes” value worked out at 100.0% (0 min), 64.8% (20 min), 51.7% (40 min) and 45.7% (60 min). The “Mean Plasma Concentration ± SD, 1 hr” value in data set [2] (setting [4]) is listed as 37.28 ± 4.99 ng/mL. For the same compound, the “Mean Plasma Concentration ± SD, 2 hr” value in data set [2] (setting [4]) amounted to 14.92 ± 5.27 ng/mL. Moreover, the IC50 at Mu-opiate amounted to 7.3 nM.

As to `C=CCN1CC[C@]23c4c5ccc(O)c4O[C@H]2C(OCCOCCOCCOC)CC[C@@]3(O)[C@H]1C5` (some centres unmarked) [PEG3-Nal, 6-CH3—(OCH2CH2)3-Naloxol], the “Normalized Brain Uptake Rate (Mean ± SD)” value in data set [3] is 4.67 ± 3.57 pmole/gm brain/sec.

On to `C=CCN1CC[C@]23c4c5ccc(O)c4O[C@H]2[C@H](OCCOCCOCCOCCOCCOC)CC[C@@]3(O)[C@H]1C5` [α-PEG5-Nal, α,β-6-CH3—(OCH2CH2)5—O-naloxol], for which the Solubility entry in data set [1] is reported as “soluble”. For the same compound, the EC50 on μ-Opiate Receptors is 31.5 nM. The “Percentage of Active Remaining After Incubation with Liver Microsomes” value runs as follows: (rat, microsomes, 0 h) 100.0%; (rat, microsomes, 20 min) 84.1%; (rat, microsomes, 40 min) 75.6%; (rat, microsomes, 1 h) 69.2%. For the same compound, the “Mean Plasma Concentration ± SD, 1 hr” value in data set [2] (setting [4]) is listed as 27.37 ± 10.82 ng/mL. For the same compound, the “Mean Plasma Concentration ± SD, 2 hr” value in data set [2] (setting [4]) stood at 15.38 ± 6.65 ng/mL. Moreover, at Mu-opiate, the IC50 was 31.5 nM.

For the compound `C=CCN1CC[C@]23c4c5ccc(O)c4O[C@H]2C(=O)CC[C@@]3(O)[C@H]1C5` [Naloxone, naloxone, reference compound], the “Percentage of Active Remaining After Incubation with Liver Microsomes” value worked out at 100.0% (0 min), 47.1% (20 min), 27.6% (40 min) and 15.6% (60 min). The “Normalized Brain Uptake Rate (Mean ± SD)” value in data set [3] amounted to 15.64 ± 3.54 pmole/gm brain/sec.

Take `C=CCN1CC[C@]23c4c5ccc(O)c4O[C@H]2[C@H](OCCOCCOCCOCCOCCOC)CC[C@@]3(O)[C@H]1C5` [β-PEG5-Nal, α,β-6-CH3—(OCH2CH2)5—O-naloxol]: the Solubility entry in data set [1] is “soluble”. The compound also returned an EC50 on μ-Opiate Receptors (μ-opiate receptors, in-vitro) of 43.3 nM. In data set [2] (setting [4]), the “Mean Plasma Concentration ± SD, 1 hr” value is recorded as 69.34 ± 15.03 ng/mL and the “Mean Plasma Concentration ± SD, 2 hr” value is 36.92 ± 15.84 ng/mL. For the same compound, the IC50 at Mu-opiate (naloxone series of compounds) amounted to 43.3 nM.

Consider `C=CCN1CC[C@]23c4c5ccc(O)c4O[C@H]2[C@H](OCCOCCOCCOCCOCCOCCOCCOC)CC[C@@]3(O)[C@H]1C5` [α-PEG7-Nal, α,β-6-CH3—(OCH2CH2)7—O-naloxol], for which the Solubility entry in data set [1] is on record as “soluble”. Besides, the “Percentage of Active Remaining After Incubation with Liver Microsomes” value is, setting by setting: (rat, microsomes, 0 h) 100.0%; (rat, microsomes, 20 min) 87.4%; (rat, microsomes, 40 min) 81.6%; (rat, microsomes, 1 h) 76.9%. Moreover, the “Mean Plasma Concentration ± SD, 1 hr” value in data set [2] (setting [4]) amounted to 40.08 ± 16.61 ng/mL. In addition, the “Mean Plasma Concentration ± SD, 2 hr” value in data set [2] (setting [4]) amounted to 39.51 ± 9.57 ng/mL. Also, the “Normalized Brain Uptake Rate (Mean ± SD)” value in data set [3] (listed as PEG7-Nal (α isomer)) is reported as 0.94 ± 0.32 pmole/gm brain/sec.

In data set [1], `COCCOCCOCCOCCOCCOCCOCCNC(=O)\C=C(C)/C=C/C=C(C)/C=C/C1=C(C)CCCC1(C)C` [PEG7-13-cis-RA, CH3—(OCH2CH2)7—NH-13-cis-Retinamide] showed a Solubility of 58.3 µM (≈ 36.3 µg/mL). In data set [2] (normalized to a 6 mg/kg dose), the “Mean Plasma Concentration ± SD, 1 hr” value was found to be 44.0 ± 13.0 ng/mL and the “Mean Plasma Concentration ± SD, 2 hr” value turned out to be 38.7 ± 4.2 ng/mL. In addition, in data set [3], the “Normalized Brain Uptake Rate (Mean ± SD)” value is 24.15 ± 1.49 pmole/gm brain/sec and the “Reduction in brain uptake rate (BUR) compared to the parent compound (factor / times)” value (“Reduction … (factor / times)” below) was “four”.

On to `COCCOCCOCCOCCOCCOCCOCCOCCOCCOCCOCCNC(=O)\C=C(C)/C=C/C=C(C)/C=C/C1=C(C)CCCC1(C)C` [PEG11-13-cis-RA, CH3—(OCH2CH2)11—NH-13-cis-Retinamide], for which the Solubility entry in data set [1] was “soluble”. Further, in data set [2] (normalized to a 6 mg/kg dose), the “Mean Plasma Concentration ± SD, 1 hr” value is recorded as 21.8 ± 7.1 ng/mL and the “Mean Plasma Concentration ± SD, 2 hr” value amounted to 58.2 ± 43.5 ng/mL. For the same compound, in data set [3], the “Normalized Brain Uptake Rate (Mean ± SD)” value is recorded as 17.77 ± 1.68 pmole/gm brain/sec and the “Reduction … (factor / times)” value is “five”.

`CC1=C(/C=C/C(C)=C/C=C/C(C)=C\C(=O)O)C(C)(C)CCC1` [13-cis-Retinoic Acid, 13-cis-retinoic acid, reference compound] came in with a Solubility in data set [1] of 0.47 µM (≈ 0.141 µg/mL). Further, in data set [2] (normalized to a 6 mg/kg dose), the “Mean Plasma Concentration ± SD, 1 hr” value stood at 43.3 ± 24.0 ng/mL and the “Mean Plasma Concentration ± SD, 2 hr” value stood at 23.3 ± 14.8 ng/mL. In data set [3], the “Normalized Brain Uptake Rate (Mean ± SD)” value was 102.54 ± 37.31 pmole/gm brain/sec.

As to `C=CCN1CC[C@]23c4c5ccc(O)c4O[C@H]2[C@H](OCCOCCOCCOCCOCCOC)CC[C@@]3(O)[C@H]1C5` [PEG5-Nal, α,β-6-CH3—(OCH2CH2)5—O-naloxol], in data set [3], the “Normalized Brain Uptake Rate (Mean ± SD)” value is 0.96 ± 0.36 pmole/gm brain/sec and the “Reduction … (factor / times)” value is given as 16.

With `C=CCN1CC[C@]23c4c5ccc(O)c4O[C@H]2[C@H](OCCOCCOCCOCCOCCOCCOCCOC)CC[C@@]3(O)[C@H]1C5` [PEG7-Nal, α,β-6-CH3—(OCH2CH2)7—O-naloxol], the “Reduction … (factor / times)” value in data set [3] is on record as 16.

Take `COCCOCCOCCOCCOCCNC(=O)\C=C(C)/C=C/C=C(C)/C=C/C1=C(C)CCCC1(C)C` [PEG5-13-cis-RA, CH3—(OCH2CH2)5—NH-13-cis-retinamide]: the Solubility result in data set [1] is “soluble”. For the same compound, in data set [2] (normalized to a 6 mg/kg dose), the “Mean Plasma Concentration ± SD, 1 hr” value came out at 77.7 ± 31.6 ng/mL and the “Mean Plasma Concentration ± SD, 2 hr” value was 61.6 ± 57.1 ng/mL. The “Normalized Brain Uptake Rate (Mean ± SD)” value in data set [3] is 58.49 ± 13.44 pmole/gm brain/sec.

`C=CCN1CC[C@]23c4c5ccc(O)c4O[C@H]2[C@H](OCCOCCOCCOCCOCCOCCOCCOC)CC[C@@]3(O)[C@H]1C5` [β-PEG7-Nal, α,β-6-CH3—(OCH2CH2)7—O-naloxol]: the Solubility result in data set [1] is listed as “soluble”. Besides, in data set [2] (setting [4]), the “Mean Plasma Concentration ± SD, 1 hr” value turned out to be 50.41 ± 36.44 ng/mL and the “Mean Plasma Concentration ± SD, 2 hr” value is given as 50.08 ± 25.28 ng/mL. Further, in data set [3], the “Normalized Brain Uptake Rate (Mean ± SD)” value worked out at 0.70 ± 0.19 pmole/gm brain/sec.

Compound `COCCOCCOCCNC(=O)\C=C(C)/C=C/C=C(C)/C=C/C1=C(C)CCCC1(C)C` [PEG3-13-cis-RA, CH3(OCH2CH2)3—NH-13-cis-Retinamide] displayed a Solubility in data set [1] of 3.13 µM (≈ 1.39 µg/mL). Moreover, in data set [2] (normalized to a 6 mg/kg dose), the “Mean Plasma Concentration ± SD, 1 hr” value was determined as 131.8 ± 55.0 ng/mL and the “Mean Plasma Concentration ± SD, 2 hr” value was found to be 158.0 ± 133.0 ng/mL. Also, the “Normalized Brain Uptake Rate (Mean ± SD)” value in data set [3] turned out to be 79.65 ± 20.91 pmole/gm brain/sec.

Consider `C=CCN1CC[C@]23c4c5ccc(O)c4O[C@H]2[C@@H](OCCOCCOCCOCCOCCOCCOCCOCCOCCOC)CC[C@@]3(O)[C@H]1C5` (single isomer, unassigned) [α isomer of PEG9-Nal], for which, in data set [1], the Solubility result is recorded as “soluble”. On Mu-opiate (naloxone series of compounds), the IC50 came to 64.4 nM.

`C=CCN1CCC23c4c5ccc(O)c4OC2C(O)CCC3(O)C1C5` (single isomer, unassigned) [α-6-naloxol, reference compound]: the EC50 at μ-Opiate Receptors (μ-opiate receptors, in-vitro) amounted to 2 nM.
